In PubChem BioAssay (NCI):
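Interpolation was linear, between the two tested concentrations surrounding the appropriate level; five concentrations were tested over 48 hours in 96-well plates. GI50 marks 50% less growth. Definition used: TGI = concentration required for complete inhibition of growth.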

Key:
Experiment in all cases: NCI tumour cell line growth inhibition, 48 h
[1] = tested on: 786-0 renal
[2] = tested on: A498 renal
[3] = tested on: A549 NSCLC
[4] = tested on: ACHN renal
[5] = tested on: BT-549 breast
[6] = tested on: CAKI-1 renal
[7] = tested on: CCRF-CEM leukemia
[8] = tested on: COLO 205 colon
[9] = tested on: DU-145 prostate
[10] = tested on: HCC-2998 colon
[11] = tested on: HCT-116 colon
[12] = tested on: HCT-15 colon
[13] = tested on: HL-60(TB) leukemia
[14] = tested on: HOP-62 NSCLC
[15] = tested on: HOP-92 NSCLC
[16] = tested on: HS 578T breast
[17] = tested on: HT29 colon
[18] = tested on: IGROV1 ovarian
[19] = tested on: K-562 leukemia
[20] = tested on: KM12 colon
[21] = tested on: LOX IMVI melanoma
[22] = tested on: M14 melanoma
[23] = tested on: MALME-3M melanoma
[24] = tested on: MCF7 breast
[25] = tested on: MDA-MB-231 breast
[26] = tested on: MDA-MB-435
[27] = tested on: MOLT-4 leukemia
[28] = tested on: NCI-H226 lung
[29] = tested on: NCI-H23 lung
[30] = tested on: NCI-H460 lung
[31] = tested on: NCI-H522 lung
[32] = tested on: NCI/ADR-RES ovarian
[33] = tested on: OVCAR-3 ovarian
[34] = tested on: OVCAR-4 ovarian
[35] = tested on: OVCAR-5 ovarian
[36] = tested on: OVCAR-8 ovarian
[37] = tested on: PC-3 prostate
[38] = tested on: RPMI-8226 leukemia
[39] = tested on: RXF 393 renal
[40] = tested on: SF-268 CNS
[41] = tested on: SF-295 CNS
[42] = tested on: SF-539 CNS
[43] = tested on: SK-MEL-2 melanoma
[44] = tested on: SK-MEL-28 melanoma
[45] = tested on: SK-MEL-5 melanoma
[46] = tested on: SK-OV-3 ovarian
[47] = tested on: SN12C renal
[48] = tested on: SNB-19 CNS
[49] = tested on: SNB-75 CNS
[50] = tested on: SR leukemia
[51] = tested on: SW-620 colon
[52] = tested on: T-47D breast
[53] = tested on: TK-10 renal
[54] = tested on: U251 CNS
[55] = tested on: UACC-257 melanoma
[56] = tested on: UACC-62 melanoma
[57] = tested on: UO-31 renal

**Q.** What does the source list for `Cc1ccc2c(c1)c(C1=C(c3cn(C)c4ccccc34)C(=O)NC1=O)cn2C`?
**A.** GI50 [1]: 5.21 µM; TGI [1]: > 22.8 µM; GI50 [2]: 1.34 µM; TGI [2]: 6.14 µM; GI50 [3]: 1.97 µM; TGI [3]: > 25 µM; GI50 [4]: 3.09 µM; TGI [4]: > 23.4 µM; GI50 [5]: 3.65 µM; TGI [5]: 11.1 µM; GI50 [6]: 3.63 µM; TGI [6]: > 25 µM; GI50 [7]: 1.32 µM; TGI [7]: 13.3 µM; GI50 [8]: 1.49 µM; TGI [8]: 7.18 µM; GI50 [9]: 6.73 µM; TGI [9]: 22.2 µM; GI50 [10]: 9.25 µM; TGI [10]: > 25 µM; GI50 [11]: 1.36 µM; TGI [11]: 10.2 µM; GI50 [12]: 1.39 µM; TGI [12]: > 25 µM; GI50 [13]: 1.33 µM; TGI [13]: 11.3 µM; GI50 [14]: 3.17 µM; TGI [14]: > 25 µM; GI50 [15]: 5.96 µM; TGI [15]: > 22.1 µM; GI50 [16]: 0.595 µM; TGI [16]: 3.55 µM; GI50 [17]: 1.01 µM; TGI [17]: 6.77 µM; GI50 [18]: 5.23 µM; TGI [18]: > 14.9 µM; GI50 [19]: 1.53 µM; TGI [19]: > 25 µM; GI50 [20]: 1.92 µM; TGI [20]: 9.09 µM; GI50 [21]: 2.93 µM; TGI [21]: > 23.4 µM; GI50 [22]: 2.07 µM; TGI [22]: > 25 µM; GI50 [23]: 4.4 µM; TGI [23]: > 21.4 µM; GI50 [24]: 1.08 µM; TGI [24]: > 16.3 µM; GI50 [25]: 6.93 µM; TGI [25]: > 25 µM; GI50 [26]: 0.674 µM; TGI [26]: > 11.2 µM; GI50 [27]: 2.56 µM; TGI [27]: 13.9 µM; GI50 [28]: 3.57 µM; TGI [28]: 13 µM; GI50 [29]: 4.9 µM; TGI [29]: > 25 µM; GI50 [30]: 1.26 µM; TGI [30]: 9.01 µM; GI50 [31]: 0.927 µM; TGI [31]: 12.2 µM; GI50 [32]: 3.23 µM; TGI [32]: > 25 µM; GI50 [33]: 0.904 µM; TGI [33]: 3.44 µM; GI50 [34]: 3.79 µM; TGI [34]: > 21.8 µM; GI50 [35]: 10.8 µM; TGI [35]: > 25 µM; GI50 [36]: 5.3 µM; TGI [36]: > 25 µM; GI50 [37]: 1.75 µM; TGI [37]: > 25 µM; GI50 [38]: 2.19 µM; TGI [38]: 9.18 µM; GI50 [39]: 1.54 µM; TGI [39]: 4.79 µM; GI50 [40]: 3.09 µM; TGI [40]: > 25 µM; GI50 [41]: 1.4 µM; TGI [41]: > 15.7 µM; GI50 [42]: 1.11 µM; TGI [42]: 5.58 µM; GI50 [43]: 1.42 µM; TGI [43]: 6.81 µM; GI50 [44]: 4 µM; TGI [44]: > 22.5 µM; GI50 [45]: 1.48 µM; TGI [45]: 5.07 µM; GI50 [46]: 2.72 µM; TGI [46]: > 25 µM; GI50 [47]: 3.12 µM; TGI [47]: 16.8 µM; GI50 [48]: 8.15 µM; TGI [48]: > 25 µM; GI50 [49]: 0.723 µM; TGI [49]: > 17.8 µM; GI50 [50]: 0.966 µM; TGI [50]: 9.81 µM; GI50 [51]: 1.16 µM; TGI [51]: > 25 µM; GI50 [52]: 4 µM; TGI [52]: 20 µM; GI50 [53]: 8.67 µM; TGI [53]: > 25 µM; GI50 [54]: 1.52 µM; TGI [54]: > 25 µM; GI50 [55]: 3.39 µM; TGI [55]: > 24.2 µM; GI50 [56]: 1.35 µM; TGI [56]: 9.79 µM; GI50 [57]: 2.77 µM; TGI [57]: 13.8 µM
